Measurements: patent US20210340500A1, “METHOD FOR PRODUCING INTESTINAL CELLS FROM PLURIPOTENT STEM CELLS” (TOKYO INSTITUTE OF TECHNOLOGY, priority 2018, published 2021)

Key:
Caco-2 cells [1] = settings: cited from earlier work
[2] = tested on: hiPSC-derived enterocytes
Caco-2 cells [3] = assay: Transport across Caco-2 cell monolayer (literature); type: in vitro ADME, human; settings: corresponds to the literature value
CYP3A4 = CYP3A4 (Homo sapiens, UniProt P08684); assay: CYP metabolism assay (midazolam hydroxylation, LC-MS/MS) in hiPS-derived enterocytes; settings: day 21 of differentiation, 120 min incubation
P-gp = P-gp (Homo sapiens, UniProt P08183)
CYP3A4 expression = assay: CYP3A4 mRNA expression in hiPSC-derived enterocytes by real time PCR; type: cell-based, human; settings: day 21 of differentiation
Procedure: For intestine differentiation, the day 10 intestinal precursor cell stock was freeze thawed, and plated onto a rehydrated vitrigel membrane (CVM) 24-well insert (ad-MED Vitrigel™ 2, KANTO KAGAKU, culture area: 0.33 cm^2/insert) in M2 medium at a concentration of 1.6×10^5 cells/well. Y-27632 (WAKO: 251-00514) was added to the medium upon plating for the first 2 days. The cells were cultured in M2 until day 15. A volume of the medium was 200 μL for an upper layer and 700 μL for a lower layer of the cell culture insert. The medium was changed to M3-1 or M3-2 for days 15 to 21, or up to day 30. The medium was replaced every 2 days with a fresh medium.
M3-1 medium: William's Medium E supplemented with L-glutamine, HCM SingleQuots (containing neither GA1000 nor human EGF) (Lonza, CC-4182), 1% PS (Nacalai), 10 ng/ml recombinant human HGF (PeproTech 100-39), 1 μM dexamethasone (Sigma-Aldrich, D8893), 1.4 μM BIO, and 1 M calcitriol (Sigma-Aldrich, D1530). […]
For a reverse transcription reaction, 2.5 μg of RNA was reverse-transcribed using PrimeScript™ RT Master Mix (Takara, Japan). For real-time PCR analysis, mRNA expression was quantified with SyberGreen on a StepOne Plus (Applied Biosystems, Foster City, Calif.). […] A target mRNA level was expressed as an arbitrary unit, and was determined using the ΔΔ CT method.

Chain of CYP3A4 (P08684 whole entry): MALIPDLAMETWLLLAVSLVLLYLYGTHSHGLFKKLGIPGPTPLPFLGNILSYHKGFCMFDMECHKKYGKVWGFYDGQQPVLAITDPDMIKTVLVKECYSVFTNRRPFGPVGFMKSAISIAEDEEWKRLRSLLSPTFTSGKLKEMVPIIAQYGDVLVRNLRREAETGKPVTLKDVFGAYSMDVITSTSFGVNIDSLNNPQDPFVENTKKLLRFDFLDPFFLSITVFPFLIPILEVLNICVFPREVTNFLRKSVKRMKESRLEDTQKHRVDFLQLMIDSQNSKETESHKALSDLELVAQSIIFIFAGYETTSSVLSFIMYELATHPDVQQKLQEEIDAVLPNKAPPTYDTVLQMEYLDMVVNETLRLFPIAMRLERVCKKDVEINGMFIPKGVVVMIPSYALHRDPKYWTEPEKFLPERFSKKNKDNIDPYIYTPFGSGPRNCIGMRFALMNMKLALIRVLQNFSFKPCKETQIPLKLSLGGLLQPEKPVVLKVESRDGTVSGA
Chain of P-gp (P08183 whole entry): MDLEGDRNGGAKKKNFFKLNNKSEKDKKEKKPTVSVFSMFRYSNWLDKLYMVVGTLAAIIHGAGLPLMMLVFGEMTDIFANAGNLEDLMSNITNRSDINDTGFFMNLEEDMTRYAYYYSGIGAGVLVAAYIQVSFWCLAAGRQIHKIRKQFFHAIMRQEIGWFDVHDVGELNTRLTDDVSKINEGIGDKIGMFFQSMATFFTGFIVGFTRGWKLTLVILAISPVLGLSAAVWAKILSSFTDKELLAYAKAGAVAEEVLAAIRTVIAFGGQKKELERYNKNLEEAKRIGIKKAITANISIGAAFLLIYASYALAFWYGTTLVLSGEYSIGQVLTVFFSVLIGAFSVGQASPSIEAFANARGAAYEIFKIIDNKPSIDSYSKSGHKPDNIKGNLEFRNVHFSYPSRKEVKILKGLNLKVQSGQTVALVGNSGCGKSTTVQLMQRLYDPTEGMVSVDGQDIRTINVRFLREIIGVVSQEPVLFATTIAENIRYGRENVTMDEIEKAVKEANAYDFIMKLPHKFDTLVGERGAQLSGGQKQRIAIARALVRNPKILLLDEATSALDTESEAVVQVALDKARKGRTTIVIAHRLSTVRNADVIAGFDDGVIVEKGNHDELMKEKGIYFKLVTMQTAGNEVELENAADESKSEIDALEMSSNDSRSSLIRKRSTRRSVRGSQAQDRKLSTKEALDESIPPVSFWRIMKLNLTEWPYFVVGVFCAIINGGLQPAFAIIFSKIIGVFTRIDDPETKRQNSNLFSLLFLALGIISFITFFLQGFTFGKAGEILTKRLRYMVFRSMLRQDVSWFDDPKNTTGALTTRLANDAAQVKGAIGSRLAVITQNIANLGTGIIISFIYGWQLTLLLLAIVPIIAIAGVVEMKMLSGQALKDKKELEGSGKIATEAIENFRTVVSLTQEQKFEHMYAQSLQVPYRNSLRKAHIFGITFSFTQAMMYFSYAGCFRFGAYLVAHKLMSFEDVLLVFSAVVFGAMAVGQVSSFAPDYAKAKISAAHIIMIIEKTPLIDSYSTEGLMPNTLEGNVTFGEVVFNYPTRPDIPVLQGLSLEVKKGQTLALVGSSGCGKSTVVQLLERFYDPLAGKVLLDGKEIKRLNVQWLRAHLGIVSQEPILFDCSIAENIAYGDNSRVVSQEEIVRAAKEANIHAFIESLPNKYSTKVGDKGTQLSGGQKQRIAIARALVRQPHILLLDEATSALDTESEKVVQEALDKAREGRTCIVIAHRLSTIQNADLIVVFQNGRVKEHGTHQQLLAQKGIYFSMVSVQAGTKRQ

OC[C@@H](O)[C@@H](O)[C@H](O)[C@H](O)CO [mannitol]
transport clearance across a Caco-2 cell monolayer (paracellular) (Caco-2 cells [1]; Cogburn et al. 1991): 3 %/cm^2/hr
directional transport across a cell monolayer [2]: directional transport of neither propranolol nor mannitol across a cell monolayer was observed

CC(C)NCC(O)COc1cccc2ccccc12 (centres unmarked) [propranolol]
transcellular transport in the Caco-2 cells, converted (Caco-2 cells [3]): approximately 99.4 μL/120 min/well
transcellular transport in the Caco-2 cells (Caco-2 cells [1]; Artursson 1990): 4.19e-05 cm/s
transcellular transport (present result) ([2]; human, 120 min, 0.1 μCi/3 mL, pH 7.4): 48 μL/120 min/well

Cc1ncc2n1-c1ccc(Cl)cc1C(c1ccccc1F)=NC2 [midazolam]
clearance rate of formation of 1′-OH midazolam (CYP3A4): 0.773 μL/min/mg cellular protein

C[C@H]1O[C@@H](O[C@H]2[C@@H](O)C[C@H](O[C@H]3[C@@H](O)C[C@H](O[C@H]4CC[C@@]5(C)[C@H](CC[C@@H]6[C@@H]5C[C@@H](O)[C@]5(C)[C@@H](C7=CC(=O)OC7)CC[C@]65O)C4)O[C@@H]3C)O[C@@H]2C)C[C@H](O)[C@@H]1O [digoxin]
directional B-to-A transport compared with A-to-B transport (P-gp): at a level higher than apical-to-basal transport

C=C1/C(=C\C=C2/CCC[C@]3(C)[C@@H]([C@H](C)CCCC(C)(C)O)CC[C@@H]23)C[C@@H](O)C[C@@H]1O [calcitriol]
CYP3A4 expression when calcitriol is removed from M3-2 medium (CYP3A4 expression): minimally expressed CYP3A4
